This is an account of results in PMC4409337, “Immucillins Impair Leishmania (L.) infantum chagasi and Leishmania (L.) amazonensis Multiplication In Vitro” (PLoS ONE, 2015).

The term CC50 denotes the concentration that lowers cell viability or growth by half. By EC50 is commonly meant the concentration that produces a half-maximal response.

Data set [1] in a line: Macrophage viability and cytotoxicity (Trypan Blue). The settings on record: female, BALB/c, mouse, peritoneal macrophages. The method, then: Alternatively, the immucillins were added at 0, 24 and 48 h and viability assessed after 72h. […] The amastigote growth was assessed 24 h after the last drug addition, on 200 cells in Giemsa stained coverslips and expressed as phagocytic index = percent of infected macrophages x average number of intracellular amastigotes. […] All experiments with mice were reviewed and approved by the Animal Care and Use Committee of the Instituto de Biofísica Carlos Chagas Fo.-UFRJ (CAUAP-CONCEA, Brazil, IMPPG-016) and were performed according to the guidelines of the National Institutes of Health, USA. We made all efforts in order to minimize animal suffering.

Data set [2] relates to intracellular amastigotes of L. (L.) infantum chagasi. Description: Replication of intracellular amastigotes in infected peritoneal macrophages (phagocytic index). Format: cell-based, Leishmania (L.) infantum chagasi. The method, then: […] […] The amastigote growth was assessed 24 h after the last drug addition, on 200 cells in Giemsa stained coverslips and expressed as phagocytic index = percent of infected macrophages x average number of intracellular amastigotes. […] All experiments with mice were reviewed and approved by the Animal Care and Use Committee of the Instituto de Biofísica Carlos Chagas Fo.-UFRJ (CAUAP-CONCEA, Brazil, IMPPG-016) and were performed according to the guidelines of the National Institutes of Health, USA. We made all efforts in order to minimize animal suffering.

The structures appear in SMILES notation.

`Nc1ncnc2c(C3N[C@H](CO)[C@@H](O)[C@H]3O)c[nH]c12` (some centres unmarked) [IA]: it took 900 µM to reach half-maximal cytotoxicity in data set [1] (CC50 at 48 h). Moreover, the “reduction in the number of intracellular amastigotes” value in data set [2] (10 μM added daily at 0, 24 and 48 h) is recorded as 95%; in data set [2] (single 10 μM dose at 0 h, compared to untreated controls) it was 74%. In addition, the EC50 in data set [2] (Leishmania infantum, Peritoneal macrophage, drugs (0.5–10 μM) added at 0 h, incubation 24 h, linear interpolation, read-out: EC50 (CI 95%)) was 2.39 µM. In addition, in data set [2] (low micromolar concentrations, single to daily protocol), the “decrease of intracellular amastigote parasite load” value is recorded as 74–95%.
